In article PMC8228121, “Super-Cationic Peptide Dendrimers—Synthesis and Evaluation as Antimicrobial Agents” (Antibiotics, 2021):
Values after ≈ are worked out from the molar mass of the structure shown. Where two headings read alike, the source gives them in different places. Square brackets hold non-standard residues; d marks the D form. Side chains are listed from the residue outwards. Peptide text beside a SMILES is read from it. Orn = NCCC[C@H](N)C(=O)O

What was measured:
[1] = tested on: HepG2 cells; assay: MTT cytotoxicity assay; assay type: cell-based, human; conditions: HepG2, range of concentrations tested
Experimental: (§4) Cell viability was evaluated using the colorimetric MTT assay [21]. Human hepatocarcinoma (HepG2) cells and human embryonic kidney 293 (HEK-293) cells used in the drug toxicity assays were obtained from Cellonex (Johannesburg, South Africa). Viable HepG2 and HEK293 cells (20,000 cells/well) were seeded into a 96-well microtiter plate (200 µL) and allowed to attach overnight. The cells were exposed to varying concentrations of the peptides for 24 h. After removal of the treatment medium, 20 µL of MTT salt solution (5 mg/mL in 0.1M phosphate buffer saline (PBS)) and 100 µL of complete cell culture medium (CCM) were added to each well. After a 4 h (37 °C) incubation, the MTT salt solution was discarded and 100 μL of dimethyl sulphoxide (DMSO) were added to each well (1 h, 37 °C). The optical density of the solubilized formazan product was measured at 570 nm (reference λ of 690 nm) using a Bio-tek μQuant spectrophotometer (Winooski, VT, USA). […] GraphPad Prism (V5) (La Jolla, CA, USA) was used to obtain the half maximum inhibitory concentration (IC50) for each compound.

[2] = tested on: B. subtilis ATCC 6051; assay: microbe, parasite or virus in culture; assay type: cell-based, Bacillus subtilis
Experimental: (§1) Clinical isolates of CRE, MRSA and VRE were obtained from Lancet Laboratories, Durban, South Africa, with approval BE394/15 from the Biomedical Research Ethical Committee of the University of KwaZulu-Natal. Five reference strains of bacteria, namely Escherichia coli ATCC 25922, Pseudomonas aeruginosa ATCC 27853, Enterococcus faecium ATCC 35667, Staphylococcus aureus ATCC 29213 and Bacillus subtilis ATCC 6051 were supplied by the American Type Culture Collection (ATCC).
(§2) MIC values were determined by the broth microdilution method and the significance of the values obtained was interpreted following the guidelines of the Clinical and Laboratory Standards for Antimicrobial Susceptibility Testing.. The effect of human serum on the antimicrobial effect of the molecules tested was determined in a similar way to the MIC method used above in a solution of 50% human serum plus Mueller–Hinton broth.

[3] = tested on: E. coli ATCC 25822; assay: microbe, parasite or virus in culture; assay type: cell-based, Escherichia coli
Experimental: as §1, §2

[4] = tested on: S. aureus ATCC 29213; assay: microbe, parasite or virus in culture; assay type: cell-based, Staphylococcus aureus
Experimental: as §1, §2

[5] = tested on: P. aeruginosa ATCC 27853; assay: microbe, parasite or virus in culture; assay type: cell-based, Pseudomonas aeruginosa
Experimental: as §1, §2

[6] = tested on: E. faecium ATCC 35667; assay: microbe, parasite or virus in culture; assay type: cell-based, Enterococcus faecium
Experimental: as §1, §2

[7] = tested on: MRSA (methicillin-resistant S. aureus) isolates; assay: microbe, parasite or virus in culture; assay type: cell-based; conditions: methicillin-resistant ) isolates
Experimental: as §1, §2

[8] = tested on: P. aeruginosa; assay: Time–kill curves; assay type: cell-based; conditions: any concentration tested (MIC, ½ MIC, ¼ MIC)
Experimental: Killing curve assays were performed with a starting inoculum of 6 × 10^6 CFU/mL. […] Antimicrobials were added to 5 mL of bacteria in the exponential phase of growth and incubated at 37 °C with shaking. Samples were obtained aseptically at 0, 1, 2, 4, 6 and 24 h, diluted in Ringer 1/4 and plated on TSA for colony counting. The response of microbial strains to a single antimicrobial was determined by lowering logarithms of viable bacteria. In accordance with Lora-Tamayo et al., an antimicrobial was considered active when a reduction of ≥1 log10 relative to the initial inoculum was observed.

[9] = tested on: HEK293 cells
Experimental: as §4

[10] = in vitro; conditions: human
Experimental: as §4

[11] = tested on: S. aureus; assay: Effect on bacterial growth curves; assay type: cell-based; conditions: at MIC, ½ MIC and ¼ MIC
Experimental: (§3) The study of the growth dynamic of the S. aureus, E. coli and P.aeruginosa strains against CAMPDs were assayed with a starting inoculum of 10^6–10^8 CFU/mL in a 10 mL specific falcon tube. The experiment was performed by a real-time reverse-spin bioreactor RTS-1 (Biosan SIA, Riga, Latvia) that applies non-invasive, mechanically driven rotation; thus, the cell suspension is mixed efficiently, mixing and oxygening the culture at 37 °C. Cell growth kinetics were recorded non-invasively in real time from data obtained from a near-infrared optical system, every 15 min.

[12] = tested on: P. aeruginosa; assay: Effect on bacterial growth curves; assay type: cell-based
Experimental: as §3

[13] = tested on: E. coli; assay: Effect on bacterial growth curves; assay type: cell-based; conditions: irrespective of concentration (MIC, ½ MIC and ¼ MIC)
Experimental: as §3

[14] = tested on: CRE, E. coli isolates; assay: microbe, parasite or virus in culture; assay type: cell-based; conditions: Escherichia coli
Experimental: as §1, §2

CC(C)C[C@H](NC(=O)[C@H](CC(C)C)NC(=O)[C@H](CCCCN)NC(=O)[C@H](CC(C)C)NC(=O)[C@H](CC(C)C)NC(=O)[C@H](CCCCNC(=O)[C@H](CCCCN)NC(=O)[C@H](CC(C)C)NC(=O)[C@@H](N)CCCCN)NC(=O)[C@H](CCCCN)NC(=O)[C@H](CC(C)C)NC(=O)[C@@H](N)CCCCN)C(N)=O [G1KLK-L2KL2, (KLK)2KLLKLL-NH2] (H-KLKK([Lys-Leu-Lys])LLKLL-NH2)
toxicity (MTT) [1]: did not show toxicity at the range of concentrations tested | MBC ([2]; ATCC 6051): 64 µg/mL (≈ 43.7 µM) | MIC ([2]; ATCC 6051): 64 µg/mL (≈ 43.7 µM) | MBC ([3]; ATCC 25822): 32 µg/mL (≈ 21.8 µM) | MIC ([3]; ATCC 25822): 32 µg/mL (≈ 21.8 µM) | MBC ([4]; ATCC 29213): 128 µg/mL (≈ 87.4 µM) | MIC ([4]; ATCC 29213): 128 µg/mL (≈ 87.4 µM) | MBC ([5]; ATCC 27853): 32 µg/mL (≈ 21.8 µM) | MIC ([5]; ATCC 27853): 32 µg/mL (≈ 21.8 µM) | MIC ([6]; ATCC 35667): >128 µg/mL

CC(C)C[C@H](NC(=O)[C@H](CC(C)C)NC(=O)[C@H](CCCN)NC(=O)[C@H](CC(C)C)NC(=O)[C@H](CC(C)C)NC(=O)[C@H](CCCCNC(=O)[C@H](CCCN)NC(=O)[C@H](CC(C)C)NC(=O)[C@@H](N)CCCN)NC(=O)[C@H](CCCN)NC(=O)[C@H](CC(C)C)NC(=O)[C@@H](N)CCCN)C(N)=O [G1OLO-L2OL2, (OLO)2KLLOLL-NH2] (H-[Orn]L[Orn]K([Orn-Leu-Orn])LL[Orn]LL-NH2)
MIC [7]: 64 µg/mL (≈ 45.9 µM) | MBC ([2]; ATCC 6051): 32 µg/mL (≈ 22.9 µM) | MIC ([2]; ATCC 6051): 32 µg/mL (≈ 22.9 µM) | time–kill: effect on bacterial population [8]: had no effect at any concentration tested | toxicity (MTT) [9]: did not show toxicity | IC50 at 24 h [10]: 470 µg/mL (≈ 337 µM) | MBC ([3]; ATCC 25822): 8 µg/mL (≈ 5.74 µM) | MIC ([3]; ATCC 25822): 8 µg/mL (≈ 5.74 µM) | effect on growth curve [11]: negligible | delay in growth ([12]; at the MIC): approximately 6 h | effect on growth curve ([12]; at ½ MIC or ¼ MIC): no effect | effect on growth curve [13]: abolished bacterial growth | MBC ([4]; ATCC 29213): 64 µg/mL (≈ 45.9 µM) | MIC ([4]; ATCC 29213): 64 µg/mL (≈ 45.9 µM) | MBC ([5]; ATCC 27853): 16 µg/mL (≈ 11.5 µM) | MIC ([5]; ATCC 27853): 16 µg/mL (≈ 11.5 µM) | MBC ([6]; ATCC 35667): 16 µg/mL (≈ 11.5 µM) | MIC ([6]; ATCC 35667): 16 µg/mL (≈ 11.5 µM)

C[C@@H](O)[C@H]1C(=O)N2C(C(=O)O)=C(S[C@@H]3CN[C@H](C(=O)N(C)C)C3)[C@H](C)[C@H]12 [Meropenem, reference compound]
MIC ([14]; CRE E. coli isolate IMP JAP): 8 µg/mL (≈ 20.9 µM) | MIC ([14]; CRE E. coli isolate KPC L2l): 16 µg/mL (≈ 41.7 µM) | MIC ([14]; CRE E. coli isolate NDM4-FEK): > 32 µg/mL | MIC ([14]; CRE E. coli isolate OXA-48 501): 2 µg/mL (≈ 5.22 µM) | MIC ([14]; CRE E. coli isolate VIM-1 BM-12): > 32 µg/mL | MIC ([2]; Bacillus subtilis, ATCC6051, B. subtilis ATCC 6051, read-out: MIC): 0.062 µg/mL (≈ 0.162 µM) | MIC ([3]; Escherichia coli, ATCC25822): 0.125 µg/mL (≈ 0.326 µM) | MIC ([4]; Staphylococcus aureus, ATCC29213, S. aureus ATCC 29213, read-out: MIC): 0.25 µg/mL (≈ 0.652 µM) | MIC ([5]; Pseudomonas aeruginosa, ATCC27853, P. aeruginosa ATCC 27853, read-out: MIC): 1 µg/mL (≈ 2.61 µM) | MIC ([6]; Enterococcus faecium, ATCC35667, E. faecium ATCC 35667, read-out: MIC): < 0.25 µg/mL
